Data from ChEMBL document CHEMBL1629649, “Multiple regulatory pathways associated with high-level ciprofloxacin and multidrug resistance in Salmonella enterica serovar enteritidis: involvement of RamA and other global regulators” (2009).
In brackets after ≈: the same amount, converted by molar mass. Residues, ends and D or L forms follow the SMILES beside them. *: point of attachment. βNA = c1ccc2cc(N*)ccc2c1

Legend:
[1] = tested on: Salmonella enterica subsp. enterica serovar Enteritidis; assay: Inhibition of AcrAB-TolC efflux pump in Salmonella enterica serovar enteritidis isolate 104-cip assessed as fold increase in ampicillin MIC relative to control
[2] = tested on: Salmonella enterica subsp. enterica serovar Enteritidis; assay: Inhibition of AcrAB-TolC efflux pump in Salmonella enterica serovar enteritidis isolate CUH52 assessed as fold increase in ciprofloxacin MIC relative to control
[3] = tested on: Salmonella enterica subsp. enterica serovar Enteritidis; assay: Inhibition of AcrAB-TolC efflux pump in Salmonella enterica serovar enteritidis isolate CUH52 assessed as fold increase in nalidixic acid MIC relative to control
[4] = tested on: Salmonella enterica subsp. enterica serovar Enteritidis; assay: Inhibition of AcrAB-TolC efflux pump in Salmonella enterica serovar enteritidis isolate 51 assessed as fold increase in nalidixic acid MIC relative to control
[5] = tested on: Salmonella enterica subsp. enterica serovar Enteritidis; assay: Inhibition of AcrAB-TolC efflux pump in Salmonella enterica serovar enteritidis isolate 5408 assessed as fold increase in nalidixic acid MIC relative to control
[6] = tested on: Salmonella enterica subsp. enterica serovar Enteritidis; assay: Inhibition of AcrAB-TolC efflux pump in Salmonella enterica serovar enteritidis isolate 51 assessed as fold increase in ciprofloxacin MIC relative to control
[7] = tested on: Salmonella enterica subsp. enterica serovar Enteritidis; assay: Inhibition of AcrAB-TolC efflux pump in Salmonella enterica serovar enteritidis isolate NCTC 13349 assessed as fold increase in ciprofloxacin MIC relative to control
[8] = tested on: Salmonella enterica subsp. enterica serovar Enteritidis; assay: Inhibition of AcrAB-TolC efflux pump in Salmonella enterica serovar enteritidis isolate 5408 assessed as fold increase in trimethoprim-sulfamethoxazole MIC relative to control
[9] = tested on: Salmonella enterica subsp. enterica serovar Enteritidis; assay: Inhibition of AcrAB-TolC efflux pump in Salmonella enterica serovar enteritidis isolate CUH60 assessed as fold increase in nalidixic acid MIC relative to control
[10] = tested on: Salmonella enterica subsp. enterica serovar Enteritidis; assay: Inhibition of AcrAB-TolC efflux pump in Salmonella enterica serovar enteritidis isolate 5408 assessed as fold increase in ampicillin MIC relative to control
[11] = tested on: Salmonella enterica subsp. enterica serovar Enteritidis; assay: Inhibition of AcrAB-TolC efflux pump in Salmonella enterica serovar enteritidis isolate 54 assessed as fold increase in ciprofloxacin MIC relative to control
[12] = tested on: Salmonella enterica subsp. enterica serovar Enteritidis; assay: Inhibition of AcrAB-TolC efflux pump in Salmonella enterica serovar enteritidis isolate 5408-cip assessed as fold increase in ciprofloxacin MIC relative to control
[13] = tested on: Salmonella enterica subsp. enterica serovar Enteritidis; assay: Inhibition of AcrAB-TolC efflux pump in Salmonella enterica serovar enteritidis isolate 104 assessed as fold increase in ciprofloxacin MIC relative to control
[14] = tested on: Salmonella enterica subsp. enterica serovar Enteritidis; assay: Inhibition of AcrAB-TolC efflux pump in ciprofloxacin-resistant Salmonella enterica serovar enteritidis isolate CUH48 assessed as fold increase in nalidixic acid MIC relative to control
[15] = tested on: Salmonella enterica subsp. enterica serovar Enteritidis; assay: Inhibition of AcrAB-TolC efflux pump in Salmonella enterica serovar enteritidis isolate 4931 assessed as fold increase in ciprofloxacin MIC relative to control
[16] = tested on: Salmonella enterica subsp. enterica serovar Enteritidis; assay: Inhibition of AcrAB-TolC efflux pump in Salmonella enterica serovar enteritidis isolate 104-cip assessed as fold increase in nalidixic acid MIC relative to control
[17] = tested on: Salmonella enterica subsp. enterica serovar Enteritidis; assay: Inhibition of AcrAB-TolC efflux pump in Salmonella enterica serovar enteritidis isolate 104-cip assessed as fold increase in trimethoprim-sulfamethoxazole MIC relative to control
[18] = tested on: Salmonella enterica subsp. enterica serovar Enteritidis; assay: Inhibition of AcrAB-TolC efflux pump in Salmonella enterica serovar enteritidis isolate 5408 assessed as fold increase in chloramphenicol MIC relative to control
[19] = tested on: Salmonella enterica subsp. enterica serovar Enteritidis; assay: Inhibition of AcrAB-TolC efflux pump in Salmonella enterica serovar enteritidis isolate 5408-cip assessed as fold increase in trimethoprim-sulfamethoxazole MIC relative to control
[20] = tested on: Salmonella enterica subsp. enterica serovar Enteritidis; assay: Inhibition of AcrAB-TolC efflux pump in Salmonella enterica serovar enteritidis isolate 5408-cip assessed as fold increase in nalidixic acid MIC relative to control
[21] = tested on: Salmonella enterica subsp. enterica serovar Enteritidis; assay: Inhibition of AcrAB-TolC efflux pump in Salmonella enterica serovar enteritidis isolate 5408 assessed as fold increase in tetracycline MIC relative to control
[22] = tested on: Salmonella enterica subsp. enterica serovar Enteritidis; assay: Inhibition of AcrAB-TolC efflux pump in Salmonella enterica serovar enteritidis isolate CUH60 assessed as fold increase in ciprofloxacin MIC relative to control
[23] = tested on: Salmonella enterica subsp. enterica serovar Enteritidis; assay: Inhibition of AcrAB-TolC efflux pump in Salmonella enterica serovar enteritidis isolate 104 assessed as fold increase in ampicillin MIC relative to control
[24] = tested on: Salmonella enterica subsp. enterica serovar Enteritidis; assay: Inhibition of AcrAB-TolC efflux pump in Salmonella enterica serovar enteritidis isolate 104 assessed as fold increase in trimethoprim-sulfamethoxazole MIC relative to control
[25] = tested on: Salmonella enterica subsp. enterica serovar Enteritidis; assay: Inhibition of AcrAB-TolC efflux pump in Salmonella enterica serovar enteritidis isolate 104 assessed as fold increase in tetracycline MIC relative to control
[26] = tested on: Salmonella enterica subsp. enterica serovar Enteritidis; assay: Inhibition of AcrAB-TolC efflux pump in Salmonella enterica serovar enteritidis isolate 104-cip assessed as fold increase in chloramphenicol MIC relative to control
[27] = tested on: Salmonella enterica subsp. enterica serovar Enteritidis; assay: Inhibition of AcrAB-TolC efflux pump in Salmonella enterica serovar enteritidis isolate 58 assessed as fold increase in nalidixic acid MIC relative to controlphenylalanine-arginine-beta-naphthylamide
[28] = tested on: Salmonella enterica subsp. enterica serovar Enteritidis; assay: Inhibition of AcrAB-TolC efflux pump in Salmonella enterica serovar enteritidis isolate 104-cip assessed as fold increase in tetracycline MIC relative to control
[29] = tested on: Salmonella enterica subsp. enterica serovar Enteritidis; assay: Inhibition of AcrAB-TolC efflux pump in Salmonella enterica serovar enteritidis isolate 5408 assessed as fold increase in ciprofloxacin MIC relative to control
[30] = tested on: Salmonella enterica subsp. enterica serovar Enteritidis; assay: Inhibition of AcrAB-TolC efflux pump in Salmonella enterica serovar enteritidis isolate 5408-cip assessed as fold increase in chloramphenicol MIC relative to control
[31] = tested on: Salmonella enterica subsp. enterica serovar Enteritidis; assay: Inhibition of AcrAB-TolC efflux pump in Salmonella enterica serovar enteritidis isolate 104-cip assessed as fold increase in ciprofloxacin MIC relative to control
[32] = tested on: Salmonella enterica subsp. enterica serovar Enteritidis; assay: Inhibition of AcrAB-TolC efflux pump in Salmonella enterica serovar enteritidis isolate 5408-cip assessed as fold increase in ampicillin MIC relative to control
[33] = tested on: Salmonella enterica subsp. enterica serovar Enteritidis; assay: Inhibition of AcrAB-TolC efflux pump in Salmonella enterica serovar enteritidis isolate 104 assessed as fold increase in chloramphenicol MIC relative to control
[34] = tested on: Salmonella enterica subsp. enterica serovar Enteritidis; assay: Inhibition of AcrAB-TolC efflux pump in Salmonella enterica serovar enteritidis isolate 104 assessed as fold increase in nalidixic acid MIC relative to control
[35] = tested on: Salmonella enterica subsp. enterica serovar Enteritidis; assay: Inhibition of AcrAB-TolC efflux pump in Salmonella enterica serovar enteritidis isolate 58 assessed as fold increase in ciprofloxacin MIC relative to controlphenylalanine-arginine-beta-naphthylamide
[36] = tested on: Salmonella enterica subsp. enterica serovar Enteritidis; assay: Inhibition of AcrAB-TolC efflux pump in Salmonella enterica serovar enteritidis isolate NCTC 13349 assessed as fold increase in nalidixic acid MIC relative to control
[37] = tested on: Salmonella enterica subsp. enterica serovar Enteritidis; assay: Inhibition of AcrAB-TolC efflux pump in Salmonella enterica serovar enteritidis isolate 4931 assessed as fold increase in nalidixic acid MIC relative to control
[38] = tested on: Salmonella enterica subsp. enterica serovar Enteritidis; assay: Inhibition of AcrAB-TolC efflux pump in ciprofloxacin-resistant Salmonella enterica serovar enteritidis isolate CUH48 assessed as fold increase in ciprofloxacin MIC relative to control
[39] = tested on: Salmonella enterica subsp. enterica serovar Enteritidis; assay: Inhibition of AcrAB-TolC efflux pump in Salmonella enterica serovar enteritidis isolate 5408-cip assessed as fold increase in tetracycline MIC relative to control
[40] = tested on: Salmonella enterica subsp. enterica serovar Enteritidis; assay: Inhibition of AcrAB-TolC efflux pump in Salmonella enterica serovar enteritidis isolate 54 assessed as fold increase in nalidixic acid MIC relative to control

N=C(N)NCCC[C@H](NC(=O)[C@@H](N)Cc1ccccc1)C(=O)Nc1ccc2ccccc2c1 (H-Phe-Arg-βNA)
Activity [1]: 1 µg/mL | Activity [2]: 0.008 µg/mL | Activity [3]: 0.75 µg/mL | Activity [4]: 32 µg/mL | Activity [5]: 24 µg/mL | Activity [6]: 0.094 µg/mL | Activity [7]: 0.008 µg/mL | Activity [8]: 0.023 µg/mL | Activity [9]: 32 µg/mL | Activity [10]: 1 µg/mL | Activity [11]: 0.064 µg/mL | Activity [12]: 2 µg/mL | Activity [13]: 0.094 µg/mL | MIC [14]: 0.5 µg/mL (≈ 1.12 µM) | Activity [15]: 0.064 µg/mL | Activity [16]: 256 µg/mL | Activity [17]: 0.023 µg/mL | Activity [18]: 0.5 µg/mL | Activity [19]: 0.032 µg/mL | Activity [20]: 16 µg/mL | Activity [21]: 0.19 µg/mL | Activity [22]: 0.094 µg/mL | Activity [23]: 0.75 µg/mL | Activity [24]: 0.023 µg/mL | Activity [25]: 0.19 µg/mL | Activity [26]: 1 µg/mL | Activity [27]: 24 µg/mL | Activity [28]: 3 µg/mL | Activity [29]: 0.094 µg/mL | Activity [30]: 0.38 µg/mL | Activity [31]: 2 µg/mL | Activity [32]: 2 µg/mL | Activity [33]: 0.75 µg/mL | Activity [34]: 24 µg/mL | Activity [35]: 0.064 µg/mL | Activity [36]: 0.38 µg/mL | Activity [37]: 16 µg/mL | MIC [38]: 0.012 µg/mL | Activity [39]: 0.094 µg/mL | Activity [40]: 16 µg/mL
